For experiment [1], the target named is T1, SUMO-activating enzyme (Homo sapiens, UniProt Q9UBT2). Put plainly: blockers of UBC9-mediated SUMO conjugation – biochemical, AlphaScreen, SUMOylation inhibitor project, confirmation (AID 2018). The format is functional. On the technique in general: Alpha assays give light when donor and acceptor beads are brought close together.
The target in experiment [2] is Bifunctional protein GlmU (Mycobacterium tuberculosis, UniProt P9WMN3). Description: Inhibitors of Mycobacterial Glucosamine-1-phosphate acetyl transferase (GlmU). Secondary screen. Further details: species or system Mycobacterium tuberculosis H37Rv.
Experiment [3] deals with T1, SUMO-activating enzyme. Description: blockers of SAE1/SAE2–UBC9 SUMO transfer – biochemical, HTRF, uHTS, primary screen (AID 2006). The format is protein-complex assay.
Experiment [4] concerns the target RNA-editing ligase 1, mitochondrial (Trypanosoma brucei brucei, UniProt P86926). Put plainly: inhibition of trypanosome RNA editing ligase – biochemical, fluorescence, Trypanosoma brucei, dose response (AID 1117295). It is filed as functional.
A short description of experiment [5]: HIV-1 AD8 envelope cell-cell fusion blockers – cherry-pick, dose response (AID 652062).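 Further: luciferase signal from cell-cell fusion driven by HIV-1 clade B AD8 Env; potency is for inhibitors of fusion seen as a drop in luminescence.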 The format is functional, cell-based.
Experiment [6] can be described thus: blockers of HIV-1 ZM109 envelope-driven cell-cell fusion – HeLa effector, CEM target cells, luciferase, cherry-pick, dose response (AID 652058).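 Further: luciferase signal from HIV-1 Env mediated cell-cell fusion of effector and target cells.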 The format is functional, cell-based.
Experiment [7] is described as follows: off-target signal loss in HeLa-CEM21 co-culture – HeLa F-luc CTL cells, cherry-picked, counter-screen for HIV-1 Env fusion inhibitor project, dose response (AID 652040).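 Further: potency for signal decrease marking cytotoxic or nonspecific inhibition.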 The format is functional, cell-based. In general terms: Counterscreens check selectivity or assay interference.
A short description of experiment [8]: blockade of melanocortin 4 receptor signaling – cell-based, plate reader, cherry pick, counter-screen for LGR2 antagonist project, dose response (AID 743444).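 Further: transfected HEK 293 cells stimulated with alpha-MSH peptide; potency of inhibitors of the alpha-MSH evoked signal.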 The format is functional.
Experiment [9] is described as follows: blockers of bursicon-stimulated LGR2 cAMP reporter – cell-based, HEK293, CRE-luciferase reporter, cherry pick, set 2, dose response (AID 743343).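 Further: transfected cells were stimulated with diluted bursicon conditioned medium after compound addition.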 It is filed as functional.
Experiment [10] in a line: A549 cell cytotoxicity, dose response, cytotoxicity control, plate reader, cherry-pick, antagonist series (AID 743412). It is filed as functional, cell-based.
Experiment [11] deals with Paired box protein Pax-8 (Homo sapiens, UniProt Q06710). Description: PAX8 transcriptional activity inhibition in RMG-I – RMG-I cells, luciferase, cherry-pick, dose response (AID 687027).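 Further: luciferase reporter driven by Pax8 target thyroperoxidase promoter measured by SteadyGlo luminescence.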 The format is functional, cell-based.
Experiment [12] concerns the target Heat shock protein HSP 90-alpha (Homo sapiens, UniProt P07900). Description: Luminescence-based dose response biochemical high throughput screening assay for inhibitors of the Heat Shock Protein 90 (HSP90). [Related pubchem assays: 1831 (Summary AID.), 1846 (Confirmation screen.), 1789 (Primary screen.)].
Experiment [13] addresses T2, Heat shock factor protein 1 (Mus musculus, UniProt P38532).
T2 sequence (P38532 whole entry): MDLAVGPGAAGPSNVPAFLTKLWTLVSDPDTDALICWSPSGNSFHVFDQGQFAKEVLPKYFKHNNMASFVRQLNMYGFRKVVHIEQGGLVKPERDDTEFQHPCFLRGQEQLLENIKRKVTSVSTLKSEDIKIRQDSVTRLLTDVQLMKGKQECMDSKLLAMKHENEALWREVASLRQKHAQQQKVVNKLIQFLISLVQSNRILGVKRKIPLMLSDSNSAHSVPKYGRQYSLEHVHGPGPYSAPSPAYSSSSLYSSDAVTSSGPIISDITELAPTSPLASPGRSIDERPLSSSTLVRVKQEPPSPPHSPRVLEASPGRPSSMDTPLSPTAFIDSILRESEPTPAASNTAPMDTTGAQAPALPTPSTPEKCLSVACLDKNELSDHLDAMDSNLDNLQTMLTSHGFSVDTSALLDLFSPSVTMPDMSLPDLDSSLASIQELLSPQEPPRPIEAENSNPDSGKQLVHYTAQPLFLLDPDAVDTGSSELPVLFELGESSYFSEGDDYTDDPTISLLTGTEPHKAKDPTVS
Description: decrease of HSF1-responsive luciferase luminescence – cell-based, NIH3T3, dose retest, confirmation (AID 2382).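 Further: NIH3T3 fibroblasts with HSF1-driven luciferase reporter stressed by proteasome inhibitor MG132; luminescence from HSF1-driven luciferase expression after 8 hours of MG132 stress.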 The format is functional.

Experiment [14] can be described thus: viability loss in HEK293 cells – cell-based, plate reader, cherry-picked samples, cytotoxicity control, dose response (AID 743446). The format is functional.
Experiment [15] can be described thus: HEK-293T viability loss, compound-treated – cell-based, uHTS hits, cytotoxicity control for B/T-cell NF-kB inhibitor project, dose response (AID 489019).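 Further: IC50 reflects cytotoxicity as loss of cell viability.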 It is filed as functional.
In experiment [16] the test system is Jurkat. Put plainly: blockers of NF-kB activation in T cells – Jurkat, luciferase reporter, luminescence, B- and T-cell, dose response (AID 489004).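 Further: NF-kB luciferase reporter Jurkat cells stimulated with PMA plus ionomycin.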 It is filed as functional, cell-based. To be noted: Homo sapiens. (In general: In a reporter assay the amount or activity of a reporter protein is the signal.)
Experiment [17] in a line: blockers of HIV-1 envelope-mediated cell-cell fusion – cherry-pick, dose response (AID 652057). It is filed as functional, cell-based.
The target of experiment [18] is Nonstructural protein 1 (Influenza A virus, UniProt Q194T2). The format is functional, Influenza A virus (A/California/07/2009(H1N1)).
Experiment [19] concerns the target T3, Mannose-6-phosphate isomerase (Homo sapiens, UniProt P34949).
T3 sequence (P34949 whole entry): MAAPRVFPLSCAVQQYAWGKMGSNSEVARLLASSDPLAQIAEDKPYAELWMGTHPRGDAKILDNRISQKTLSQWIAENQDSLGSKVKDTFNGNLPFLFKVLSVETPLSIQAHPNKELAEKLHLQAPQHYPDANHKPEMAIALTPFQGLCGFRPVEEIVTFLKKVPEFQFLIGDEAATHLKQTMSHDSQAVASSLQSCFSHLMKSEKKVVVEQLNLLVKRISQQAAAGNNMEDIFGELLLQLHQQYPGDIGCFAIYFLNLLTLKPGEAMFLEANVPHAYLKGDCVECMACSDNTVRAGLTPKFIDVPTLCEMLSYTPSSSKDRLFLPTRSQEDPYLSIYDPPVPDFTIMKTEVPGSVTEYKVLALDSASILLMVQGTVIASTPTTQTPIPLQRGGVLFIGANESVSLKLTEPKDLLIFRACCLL
Put plainly: MPI inhibition at elevated mannose 6-phosphate – biochemical, fluorescence intensity, high mannose 6-phosphate, primary screen (AID 1220).

Experiment [20] is described as follows: Dd2 parasite growth inhibition in erythrocytes – SYBR Green, dry powder samples, set 4, dose response (AID 1159572). It is filed as functional, cell-based.
Experiment [21] is described as follows: viability inhibitors of stage V gametocytes – luminescence, dose response (AID 1117278).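 Further: gametocytes exposed to compound for 24 hours.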 It is filed as functional, cell-based.
The nature of experiment [22]: viability loss in human Jurkat cells – cell-based, luminescence, cytotoxicity control for P. falciparum gametocyte viability project, dose response (AID 1117277).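 Further: potency reflects loss of cellular ATP meaning fewer viable cells.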 It is filed as functional.

IC50, AC50 and EC50 data for six compounds are collected here from ChEMBL document CHEMBL1201862, “PubChem BioAssay data set” (2004).

Calls of active or inactive are those of the source. Bounds are passed on as bounds.

By IC50 is commonly meant the concentration needed to halve the response being measured. A word on the AC50: it is the concentration at which the activity in the assay is half-maximal. By EC50 is commonly meant the concentration needed to bring the measured effect to its halfway point.

T1 sequence (Q9UBE0 whole entry): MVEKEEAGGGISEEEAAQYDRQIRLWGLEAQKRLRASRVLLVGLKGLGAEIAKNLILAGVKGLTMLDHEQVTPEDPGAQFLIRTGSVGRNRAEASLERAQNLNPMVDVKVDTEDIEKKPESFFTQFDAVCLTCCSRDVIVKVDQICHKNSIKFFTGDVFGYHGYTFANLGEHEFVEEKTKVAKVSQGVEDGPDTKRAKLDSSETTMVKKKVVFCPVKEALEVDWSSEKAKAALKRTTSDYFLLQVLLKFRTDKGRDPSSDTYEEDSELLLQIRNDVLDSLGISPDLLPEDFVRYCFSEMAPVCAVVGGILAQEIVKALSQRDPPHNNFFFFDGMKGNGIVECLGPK
T1 sequence (Q9UBT2 whole entry): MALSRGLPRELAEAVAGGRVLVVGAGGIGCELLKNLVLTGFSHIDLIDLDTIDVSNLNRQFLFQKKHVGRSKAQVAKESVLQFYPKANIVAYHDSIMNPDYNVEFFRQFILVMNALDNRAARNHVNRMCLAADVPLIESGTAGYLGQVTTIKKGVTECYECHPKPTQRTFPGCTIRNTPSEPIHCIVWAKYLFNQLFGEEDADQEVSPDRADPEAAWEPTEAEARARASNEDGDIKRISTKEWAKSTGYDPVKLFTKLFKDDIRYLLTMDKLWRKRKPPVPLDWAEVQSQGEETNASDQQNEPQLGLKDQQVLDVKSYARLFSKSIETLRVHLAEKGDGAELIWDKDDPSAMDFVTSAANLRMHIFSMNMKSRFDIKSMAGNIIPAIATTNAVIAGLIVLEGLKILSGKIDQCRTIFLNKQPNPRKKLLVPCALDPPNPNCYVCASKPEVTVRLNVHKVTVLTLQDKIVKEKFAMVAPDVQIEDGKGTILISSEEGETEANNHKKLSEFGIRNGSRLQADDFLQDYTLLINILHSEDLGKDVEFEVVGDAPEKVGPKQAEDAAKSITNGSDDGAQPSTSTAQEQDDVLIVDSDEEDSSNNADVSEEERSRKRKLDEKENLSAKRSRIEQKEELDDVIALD
Chain of Bifunctional protein GlmU (P9WMN3 whole entry): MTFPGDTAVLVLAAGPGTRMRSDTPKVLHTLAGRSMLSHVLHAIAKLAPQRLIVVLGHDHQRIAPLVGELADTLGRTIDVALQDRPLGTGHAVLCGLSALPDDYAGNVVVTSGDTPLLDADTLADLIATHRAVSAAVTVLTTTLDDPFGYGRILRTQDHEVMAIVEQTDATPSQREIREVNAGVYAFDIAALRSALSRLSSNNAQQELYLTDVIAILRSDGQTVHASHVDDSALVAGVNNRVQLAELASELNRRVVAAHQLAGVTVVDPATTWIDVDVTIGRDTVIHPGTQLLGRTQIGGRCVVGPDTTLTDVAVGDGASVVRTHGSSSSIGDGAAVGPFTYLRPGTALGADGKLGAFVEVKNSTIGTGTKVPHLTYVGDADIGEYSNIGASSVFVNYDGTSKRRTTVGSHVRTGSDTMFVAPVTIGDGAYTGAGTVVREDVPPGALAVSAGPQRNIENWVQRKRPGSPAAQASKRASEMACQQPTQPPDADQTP
Chain of Paired box protein Pax-8 (Q06710 whole entry): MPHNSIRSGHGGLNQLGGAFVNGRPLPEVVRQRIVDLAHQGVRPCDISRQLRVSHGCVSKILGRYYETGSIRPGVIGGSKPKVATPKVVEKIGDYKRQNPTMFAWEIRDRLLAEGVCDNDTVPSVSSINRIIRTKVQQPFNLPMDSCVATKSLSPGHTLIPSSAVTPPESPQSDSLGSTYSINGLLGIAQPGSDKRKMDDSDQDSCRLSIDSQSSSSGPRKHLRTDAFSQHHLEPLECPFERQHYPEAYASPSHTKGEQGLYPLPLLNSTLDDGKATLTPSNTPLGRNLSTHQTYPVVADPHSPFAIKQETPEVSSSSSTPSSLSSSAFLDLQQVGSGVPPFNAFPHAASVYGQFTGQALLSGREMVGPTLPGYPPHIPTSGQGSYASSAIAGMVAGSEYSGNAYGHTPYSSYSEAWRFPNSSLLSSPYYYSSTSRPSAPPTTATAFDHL
Chain of RNA-editing ligase 1, mitochondrial (P86926 whole entry, the tested form may be a part): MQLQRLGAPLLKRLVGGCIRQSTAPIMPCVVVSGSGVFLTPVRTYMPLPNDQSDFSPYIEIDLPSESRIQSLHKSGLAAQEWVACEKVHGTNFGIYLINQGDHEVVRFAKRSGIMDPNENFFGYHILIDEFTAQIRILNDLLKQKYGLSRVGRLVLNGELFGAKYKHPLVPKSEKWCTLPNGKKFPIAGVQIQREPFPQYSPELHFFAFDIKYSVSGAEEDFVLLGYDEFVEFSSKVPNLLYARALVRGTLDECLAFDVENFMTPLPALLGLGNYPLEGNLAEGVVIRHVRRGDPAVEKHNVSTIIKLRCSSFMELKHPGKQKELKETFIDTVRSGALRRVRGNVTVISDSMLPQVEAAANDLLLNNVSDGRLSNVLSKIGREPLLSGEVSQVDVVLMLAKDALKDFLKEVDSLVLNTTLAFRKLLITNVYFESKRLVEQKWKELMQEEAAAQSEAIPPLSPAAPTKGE
Chain of Nonstructural protein 1 (Q194T2 whole entry): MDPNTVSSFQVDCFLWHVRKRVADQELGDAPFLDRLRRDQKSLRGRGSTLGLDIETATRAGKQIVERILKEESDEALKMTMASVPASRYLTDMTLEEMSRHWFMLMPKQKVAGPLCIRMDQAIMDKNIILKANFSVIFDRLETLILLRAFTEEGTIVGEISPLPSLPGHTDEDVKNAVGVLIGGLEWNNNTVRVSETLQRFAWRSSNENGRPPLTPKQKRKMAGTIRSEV

`N#C/C(=C/c1ccc(-c2cc(C(=O)O)cc(C(=O)O)c2)o1)c1nc2ccccc2s1`: the IC50 in experiment [1] was 2.81 µM (active); in [2] it was 19.1 µM (active); in experiment [3], 15.9 µM (active).
For `COC(=O)C1=C(C)N(Cc2ccccc2C(F)(F)F)C(NCc2ccc(OC)cc2)=NC1c1cccc(F)c1` (configuration not stated), the IC50 in experiment [4] was > 96.6 µM (inactive).
On to `O=C(CN1C(=O)c2ccccc2S1(=O)=O)c1ccc2c(c1)OCCO2`, for which the AC50 in [5] is < 260 nM (active); in [6], 1.08 µM (active); in experiment [7], 556 nM (active); in [8], 206 nM (active); in [9], 126 nM (active); in experiment [10] it was 22.9 µM (active). In addition, the AC50 in experiment [11] was 1.64 µM (active); in experiment [14], > 52 µM (inactive); in experiment [17] it was 339 nM (active). Also, the IC50 was 1.39 µM (active) in experiment [12], > 80 µM (inactive) in experiment [15] and 170 nM (active) in [16]. Moreover, the half-maximal effective concentration (EC50) in experiment [13] is 418 nM (active).
Consider `Nc1ccccc1NC1CCCCC1`, for which the values for the concentration for half-maximal inhibition (IC50) in experiment [18] and in [19] were 64.8 µM (active) and > 50 µM (not active), respectively.
Consider `COc1ccc2c3c(n(C)c2c1)[C@H](CO)N(C(C)=O)CC31CCN(C(=O)Nc2ccccc2F)CC1`, for which the AC50 in experiment [20] was 6.63 µM (active).
Regarding `COCCNC(=O)c1ccc2c(c1)CCN2S(C)(=O)=O`, the values for the IC50 in experiment [21] and in [22] were > 109 µM (inactive) and > 83.3 µM (inactive), respectively.
